The target of data set [1] is Serine/threonine-protein kinase B-raf (Homo sapiens, UniProt P15056, V600E). In words: Inhibition of full-length His6-tagged BRAF V600E mutant (2 to 766 residues) (unknown origin) expressed in baculovirus system by B-Raf accelerated MEK ATPase assay.
The target in data set [2] is T1, Serine/threonine-protein kinase TNNI3K (Homo sapiens, UniProt Q59H18).
T1 sequence (Q59H18 whole entry): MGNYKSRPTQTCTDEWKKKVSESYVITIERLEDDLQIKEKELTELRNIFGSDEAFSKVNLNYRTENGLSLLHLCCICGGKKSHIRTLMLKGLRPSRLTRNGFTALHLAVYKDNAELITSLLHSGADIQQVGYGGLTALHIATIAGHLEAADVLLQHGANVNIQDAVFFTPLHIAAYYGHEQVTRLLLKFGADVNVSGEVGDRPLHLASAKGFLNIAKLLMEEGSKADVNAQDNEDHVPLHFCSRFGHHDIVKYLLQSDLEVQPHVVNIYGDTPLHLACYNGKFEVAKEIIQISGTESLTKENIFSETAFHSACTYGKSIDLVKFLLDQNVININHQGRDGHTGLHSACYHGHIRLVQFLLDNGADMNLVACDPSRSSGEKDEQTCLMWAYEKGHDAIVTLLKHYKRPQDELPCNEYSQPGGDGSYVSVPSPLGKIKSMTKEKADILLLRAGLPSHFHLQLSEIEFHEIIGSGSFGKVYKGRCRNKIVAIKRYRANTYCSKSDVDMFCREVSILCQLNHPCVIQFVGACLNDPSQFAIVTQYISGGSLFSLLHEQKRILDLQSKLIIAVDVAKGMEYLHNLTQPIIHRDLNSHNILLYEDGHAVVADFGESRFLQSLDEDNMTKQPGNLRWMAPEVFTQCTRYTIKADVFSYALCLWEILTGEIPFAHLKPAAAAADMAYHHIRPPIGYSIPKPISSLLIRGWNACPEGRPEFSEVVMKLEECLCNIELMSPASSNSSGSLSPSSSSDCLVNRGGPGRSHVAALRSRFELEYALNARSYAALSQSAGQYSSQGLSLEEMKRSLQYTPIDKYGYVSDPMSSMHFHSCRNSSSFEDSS
In words: Inhibition of human myc-tagged TNNI3K autophosphorylation overexpressed in HEKMSR2 cells incubated for 30 mins by time resolved fluorescence assay. Type of data set: cell-based.

In another data set the test system is Rattus norvegicus. In words: Dose normalized AUC in Sprague-Dawley rat at 2 mg/kg, po administered as gastric bolus by LC/MS/MS analysis. The conditions noted are these: in vivo. Type of data set: ADME, organism-based.
In data set [3] the target is T1, Serine/threonine-protein kinase TNNI3K. In words: Displacement of 5-({[2-({[3-({4-[(5-hydroxy-2-methylphenyl)amino]-2-pyrimidinyl}amino)phenyl]carbonyl}amino)-ethyl]amino}carbonyl)-2-(6-hydroxy-3-oxo-3H-xanthen-9-yl)benzoic acid from full length human TNNI3K expressed in baculovirus system incubated for 60 mins by fluorescence polarization assay.
A short description of data set [4]: Fraction unbound in Sprague-Dawley rat plasma at 2 mg/kg, po administered as gastric bolus by LC/MS/MS analysis. Type of data set: ADME, organism-based.
A short description of data set [5]: Cmax in Sprague-Dawley rat at 2 mg/kg, po administered as gastric bolus by LC/MS/MS analysis. Type of data set: ADME, organism-based. Further details: dose 2 mg/kg, route oral. As to conditions: in vivo.
Data set [6] can be described thus: Half life in Sprague-Dawley rat at 2 mg/kg, po administered as gastric bolus by LC/MS/MS analysis. The class given is ADME, organism-based. As to conditions: in vivo.

SMILES strings stand for the structures.

Serine/threonine-protein kinase B-raf, sequence (P15056 2-766 V600E limits assumed): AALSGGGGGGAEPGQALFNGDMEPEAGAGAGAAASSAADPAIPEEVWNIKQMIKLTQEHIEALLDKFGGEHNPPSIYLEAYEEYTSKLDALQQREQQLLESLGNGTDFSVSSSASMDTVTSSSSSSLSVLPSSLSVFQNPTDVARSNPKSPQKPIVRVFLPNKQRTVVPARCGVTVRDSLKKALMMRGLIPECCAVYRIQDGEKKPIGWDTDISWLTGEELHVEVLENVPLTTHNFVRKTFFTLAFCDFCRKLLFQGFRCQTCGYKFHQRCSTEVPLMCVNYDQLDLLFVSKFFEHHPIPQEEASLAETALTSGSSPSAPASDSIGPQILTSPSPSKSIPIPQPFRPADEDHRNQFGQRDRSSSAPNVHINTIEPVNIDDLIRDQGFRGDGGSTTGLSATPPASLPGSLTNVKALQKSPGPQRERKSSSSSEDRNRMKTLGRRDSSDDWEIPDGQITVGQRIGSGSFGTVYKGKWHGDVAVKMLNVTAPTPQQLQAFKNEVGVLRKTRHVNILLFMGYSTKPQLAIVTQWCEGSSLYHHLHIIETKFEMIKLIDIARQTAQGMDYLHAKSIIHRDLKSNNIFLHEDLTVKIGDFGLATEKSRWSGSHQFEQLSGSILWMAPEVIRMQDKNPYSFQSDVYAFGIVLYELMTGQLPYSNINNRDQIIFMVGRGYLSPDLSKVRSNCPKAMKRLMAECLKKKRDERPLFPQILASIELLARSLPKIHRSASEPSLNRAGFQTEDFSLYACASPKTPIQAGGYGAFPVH

A word on the IC50: it is the concentration that inhibits the measured activity by half. A lower IC50 goes with inhibition by little substance. For the molecule `CNS(=O)(=O)c1ccc(OCC(F)(F)F)c(Nc2ncnc3cc(OC)c(OC)c(OC)c23)c1`, the IC50 in data set [1] was 79 nM; in data set [2], 63 nM; in data set [3], < 10 nM. The AUC/dose in the data set with Rattus norvegicus amounted to 0.24 kg·h/L.

On to `CNS(=O)(=O)c1ccc(N(C)C)c(Nc2ncnc3cc(N)ccc23)c1`, for which the figures for the IC50 in data set [1] and in data set [3] were 4000 nM and 63 nM, respectively.

For the molecule `CNS(=O)(=O)c1ccc(N2CCOCC2)c(Nc2ncnc3[nH]cc(Cl)c23)c1`, the IC50 in data set [1] is 0.6 nM; in data set [3] it was < 10 nM.

On to `CNS(=O)(=O)c1ccc(OCC(F)(F)F)c(Nc2ncnc3cc(OCCCN4CCOCC4)ccc23)c1`, for which the IC50 in data set [1] is 1300 nM; in data set [2] it was 79 nM; in data set [3] it was 13 nM. In the data set with Rattus norvegicus, this molecule yielded an AUC/dose of 0 kg·h/L.

For the molecule `CNS(=O)(=O)c1ccc(OCC(F)(F)F)c(Nc2ncnc3cc(OC)c(OC)cc23)c1`, the values for the IC50 in data set [1], in data set [2] and in data set [3] were 130 nM, 160 nM and 25 nM, respectively. This molecule gave an AUC/dose in the data set with Rattus norvegicus of 1.9 kg·h/L.

One may read the fraction unbound as the share of the substance not bound to proteins or other matrix. A lower fraction unbound goes with little free substance. Usually Cmax stands for the highest concentration seen after dosing. As usually defined, the half-life is the time in which the quantity being followed falls by half. `CNS(=O)(=O)c1ccc(N(C)C)c(Nc2ncnc3cc(OC)c(OC)cc23)c1` showed a fraction unbound in data set [4] of 0.202. Also, the IC50 in data set [1] is 1000 nM; in data set [2], 100 nM; in data set [3], 25 nM. The molecule also had a Cmax in data set [5] of 130 ng/mL. In addition, the AUC/dose in the data set with Rattus norvegicus was determined as 0.18 kg·h/L. In data set [6], this molecule had a half-life of 3.6 h.

Consider `CNS(=O)(=O)c1ccc(OCC(F)(F)F)c(Nc2ncnc3cc(OCCCOC)ccc23)c1`, for which the IC50 was found to be 160 nM in data set [1], 320 nM in data set [2] and 25 nM in data set [3]. Moreover, the AUC/dose with Rattus norvegicus was determined as 0.07 kg·h/L.

Regarding `CNS(=O)(=O)c1ccc(N(C)C)c(Nc2ncnc3ccsc23)c1`, the IC50 in data set [1] stood at 1000 nM; in data set [3], 200 nM.

Turning to `CNS(=O)(=O)c1ccc(N(C)C)c(Nc2ncnc3ccc(N)cc23)c1`, the IC50 in data set [1] worked out at 630 nM; in data set [3] it was 32 nM.

Take `CNS(=O)(=O)c1ccc(N(C)C)c(Nc2ncnc3cc(OC)cc(OC)c23)c1`: the IC50 is 79 nM in data set [1], 10 nM in data set [2] and < 10 nM in data set [3]. For the same molecule, in the data set on Rattus norvegicus, the AUC/dose turned out to be 0.04 kg·h/L.

`CNS(=O)(=O)c1ccc(N(C)C)c(Nc2ncnc3cc(OCCCOC)ccc23)c1`: the IC50 in data set [1] was 800 nM; in data set [2] it was 25 nM; in data set [3], < 10 nM. Also, the AUC/dose in the data set with Rattus norvegicus is 0.03 kg·h/L.

On to `CNS(=O)(=O)c1ccc(N(C)C)c(Nc2ncnc3ccn(C)c23)c1`, for which the figures for the IC50 in data set [1], in data set [2] and in data set [3] were 130 nM, 50 nM and 16 nM, respectively. Further, the AUC/dose in the data set on Rattus norvegicus stood at 0.02 kg·h/L.

Consider `CNS(=O)(=O)c1ccc(N(C)C)c(Nc2ncnc3cc[nH]c23)c1`, for which the IC50 in data set [1] came to 250 nM; in data set [2], 500 nM; in data set [3], 25 nM. The AUC/dose in the data set with Rattus norvegicus amounted to 0.01 kg·h/L.

Regarding `CNS(=O)(=O)c1ccc(N(C)C)c(Nc2ncnc3ccc(OC)cc23)c1`, the values for the IC50 in data set [1] and in data set [3] were 1000 nM and 79 nM, respectively.

As to `CNS(=O)(=O)c1ccc(N(C)C)c(Nc2ncnc3cc(OCCCN4CCOCC4)ccc23)c1`, the figures for the IC50 in data set [1], in data set [2] and in data set [3] were 2500 nM, 25 nM and < 10 nM, respectively. This molecule registered an AUC/dose with Rattus norvegicus of 0.02 kg·h/L.

In the case of `CCOc1cc2ncnc(Nc3cc(S(=O)(=O)NC)ccc3OCC(F)(F)F)c2cc1OC`, the half-inhibitory concentration (IC50) in data set [1] is 100 nM; in data set [2], 50 nM; in data set [3], 13 nM. For the same molecule, the AUC/dose in the data set with Rattus norvegicus was found to be 1.7 kg·h/L.

As to `CNS(=O)(=O)c1ccc(N(C)C)c(Nc2ncnc3[nH]ccc23)c1`, the AUC/dose in the data set on Rattus norvegicus came to 0.59 kg·h/L.

`CNc1ccc2ncnc(Nc3cc(S(=O)(=O)NC)ccc3N(C)C)c2c1`: the results for the IC50 in data set [1] and in data set [3] were 1000 nM and 50 nM, respectively.

In the case of `CNS(=O)(=O)c1ccc(OCC(F)(F)F)c(Nc2ncnc3cc(OC)cc(OC)c23)c1`, the results for the IC50 in data set [1], in data set [2] and in data set [3] were 50 nM, 13 nM and < 10 nM, respectively. In the data set with Rattus norvegicus, this molecule returned an AUC/dose of 1.4 kg·h/L.

With `CNc1ccc2c(Nc3cc(S(=O)(=O)NC)ccc3N(C)C)ncnc2c1`, the IC50 was 10000 nM in data set [1] and 40 nM in data set [3].

With `CNS(=O)(=O)c1ccc(OCC(F)(F)F)c(Nc2ncnc3cc(OC(C)C)c(OC)cc23)c1`, the IC50 in data set [1] worked out at 32000 nM; in data set [3], 130 nM.

For the molecule `CNS(=O)(=O)c1ccc(N(C)C)c(Nc2ncnc3ccccc23)c1`, the IC50 turned out to be 250 nM in data set [1] and 200 nM in data set [3].

The record behind these values is ChEMBL document CHEMBL3813650, “GSK114: A selective inhibitor for elucidating the biological role of TNNI3K” (Bioorg Med Chem Lett, 2016).
